Data taken from ChEMBL document CHEMBL5291721, “A preclinical secondary pharmacology resource illuminates target-adverse drug reaction associations of marketed drugs” (Nat Commun, 2023).

How the values were obtained:
[1] = molecular target: Delta-type opioid receptor (Homo sapiens, UniProt P41143)
[2] = molecular target: T1, Muscarinic acetylcholine receptor M2 (Homo sapiens, UniProt P08172); format: functional, cell-based
T1 sequence (P08172 whole entry): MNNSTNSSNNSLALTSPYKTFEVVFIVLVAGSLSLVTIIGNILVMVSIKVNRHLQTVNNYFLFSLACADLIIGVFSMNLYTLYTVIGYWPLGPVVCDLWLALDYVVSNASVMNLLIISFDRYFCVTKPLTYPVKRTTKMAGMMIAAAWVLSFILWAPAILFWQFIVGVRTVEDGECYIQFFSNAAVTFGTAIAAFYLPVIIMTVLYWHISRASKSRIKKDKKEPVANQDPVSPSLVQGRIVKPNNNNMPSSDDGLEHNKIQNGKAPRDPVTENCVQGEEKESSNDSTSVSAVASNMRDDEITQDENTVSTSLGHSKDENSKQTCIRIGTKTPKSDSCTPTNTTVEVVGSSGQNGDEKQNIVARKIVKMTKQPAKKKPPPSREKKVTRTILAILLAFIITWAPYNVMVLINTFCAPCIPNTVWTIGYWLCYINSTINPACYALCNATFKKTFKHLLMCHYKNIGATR

[3] = molecular target: cGMP-inhibited 3',5'-cyclic phosphodiesterase 3A (Homo sapiens, UniProt Q14432); format: functional
Sequence of cGMP-inhibited 3',5'-cyclic phosphodiesterase 3A (Q14432 whole entry): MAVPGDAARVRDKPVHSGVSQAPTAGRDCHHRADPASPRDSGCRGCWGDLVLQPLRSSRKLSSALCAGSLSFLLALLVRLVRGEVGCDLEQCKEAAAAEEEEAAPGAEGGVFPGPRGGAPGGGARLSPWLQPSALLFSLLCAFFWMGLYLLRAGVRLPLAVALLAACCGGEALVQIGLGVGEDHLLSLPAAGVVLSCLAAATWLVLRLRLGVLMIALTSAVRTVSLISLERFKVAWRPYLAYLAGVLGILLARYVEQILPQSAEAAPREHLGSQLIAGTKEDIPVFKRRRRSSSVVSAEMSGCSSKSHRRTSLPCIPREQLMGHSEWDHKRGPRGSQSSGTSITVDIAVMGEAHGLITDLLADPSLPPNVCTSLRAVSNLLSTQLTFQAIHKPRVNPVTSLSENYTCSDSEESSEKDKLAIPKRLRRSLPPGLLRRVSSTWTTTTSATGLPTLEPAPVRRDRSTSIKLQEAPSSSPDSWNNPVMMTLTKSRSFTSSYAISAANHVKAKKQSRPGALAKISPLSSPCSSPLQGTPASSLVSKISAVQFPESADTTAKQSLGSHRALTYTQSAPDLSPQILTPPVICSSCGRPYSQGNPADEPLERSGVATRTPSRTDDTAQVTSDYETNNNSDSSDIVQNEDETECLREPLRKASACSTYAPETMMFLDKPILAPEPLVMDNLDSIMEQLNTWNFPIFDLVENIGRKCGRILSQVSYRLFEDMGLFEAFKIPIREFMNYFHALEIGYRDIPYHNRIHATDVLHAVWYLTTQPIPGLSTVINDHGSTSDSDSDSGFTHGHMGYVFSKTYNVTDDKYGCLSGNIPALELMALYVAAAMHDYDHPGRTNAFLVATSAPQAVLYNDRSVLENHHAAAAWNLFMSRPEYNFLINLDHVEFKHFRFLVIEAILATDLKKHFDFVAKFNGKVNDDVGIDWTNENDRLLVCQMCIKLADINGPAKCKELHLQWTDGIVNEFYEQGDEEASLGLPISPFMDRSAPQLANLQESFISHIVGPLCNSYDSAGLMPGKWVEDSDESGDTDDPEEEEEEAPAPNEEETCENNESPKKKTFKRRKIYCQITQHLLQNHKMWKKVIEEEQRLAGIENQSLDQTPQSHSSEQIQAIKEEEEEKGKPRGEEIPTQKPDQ

Mu-type opioid receptor = Mu-type opioid receptor (Homo sapiens, UniProt P35372); assay: biochemical; format: functional
Sequence of Mu-type opioid receptor (P35372 whole entry): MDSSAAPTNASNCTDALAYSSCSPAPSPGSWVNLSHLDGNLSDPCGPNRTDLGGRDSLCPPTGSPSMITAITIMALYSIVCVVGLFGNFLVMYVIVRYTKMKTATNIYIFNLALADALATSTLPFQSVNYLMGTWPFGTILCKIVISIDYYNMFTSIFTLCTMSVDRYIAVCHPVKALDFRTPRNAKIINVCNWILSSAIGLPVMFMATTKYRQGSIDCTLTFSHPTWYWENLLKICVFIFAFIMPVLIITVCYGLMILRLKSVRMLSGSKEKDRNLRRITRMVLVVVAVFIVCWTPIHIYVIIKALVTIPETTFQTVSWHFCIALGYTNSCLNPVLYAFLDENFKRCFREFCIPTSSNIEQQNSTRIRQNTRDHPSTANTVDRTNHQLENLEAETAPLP

[4] = molecular target: T2, Amine oxidase [flavin-containing] A (Homo sapiens, UniProt P21397); format: functional
T2 sequence (P21397 whole entry): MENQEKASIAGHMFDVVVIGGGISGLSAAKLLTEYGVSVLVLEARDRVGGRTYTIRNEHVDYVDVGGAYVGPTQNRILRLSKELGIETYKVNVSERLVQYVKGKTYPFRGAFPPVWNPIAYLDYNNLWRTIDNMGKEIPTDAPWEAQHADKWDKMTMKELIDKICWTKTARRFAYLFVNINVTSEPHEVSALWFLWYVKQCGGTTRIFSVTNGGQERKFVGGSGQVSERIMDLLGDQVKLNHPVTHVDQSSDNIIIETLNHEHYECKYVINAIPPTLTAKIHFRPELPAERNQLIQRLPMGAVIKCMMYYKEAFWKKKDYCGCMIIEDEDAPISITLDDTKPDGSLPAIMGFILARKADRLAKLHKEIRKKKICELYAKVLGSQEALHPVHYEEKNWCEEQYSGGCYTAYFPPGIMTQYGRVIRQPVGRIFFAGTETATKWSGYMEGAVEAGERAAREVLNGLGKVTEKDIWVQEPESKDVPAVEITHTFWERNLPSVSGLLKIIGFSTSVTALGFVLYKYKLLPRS

[5] = molecular target: Voltage-gated inwardly rectifying potassium channel KCNH2 (Homo sapiens, UniProt Q12809); format: functional; conditions: read-out: AC50
Sequence of Voltage-gated inwardly rectifying potassium channel KCNH2 (Q12809 whole entry): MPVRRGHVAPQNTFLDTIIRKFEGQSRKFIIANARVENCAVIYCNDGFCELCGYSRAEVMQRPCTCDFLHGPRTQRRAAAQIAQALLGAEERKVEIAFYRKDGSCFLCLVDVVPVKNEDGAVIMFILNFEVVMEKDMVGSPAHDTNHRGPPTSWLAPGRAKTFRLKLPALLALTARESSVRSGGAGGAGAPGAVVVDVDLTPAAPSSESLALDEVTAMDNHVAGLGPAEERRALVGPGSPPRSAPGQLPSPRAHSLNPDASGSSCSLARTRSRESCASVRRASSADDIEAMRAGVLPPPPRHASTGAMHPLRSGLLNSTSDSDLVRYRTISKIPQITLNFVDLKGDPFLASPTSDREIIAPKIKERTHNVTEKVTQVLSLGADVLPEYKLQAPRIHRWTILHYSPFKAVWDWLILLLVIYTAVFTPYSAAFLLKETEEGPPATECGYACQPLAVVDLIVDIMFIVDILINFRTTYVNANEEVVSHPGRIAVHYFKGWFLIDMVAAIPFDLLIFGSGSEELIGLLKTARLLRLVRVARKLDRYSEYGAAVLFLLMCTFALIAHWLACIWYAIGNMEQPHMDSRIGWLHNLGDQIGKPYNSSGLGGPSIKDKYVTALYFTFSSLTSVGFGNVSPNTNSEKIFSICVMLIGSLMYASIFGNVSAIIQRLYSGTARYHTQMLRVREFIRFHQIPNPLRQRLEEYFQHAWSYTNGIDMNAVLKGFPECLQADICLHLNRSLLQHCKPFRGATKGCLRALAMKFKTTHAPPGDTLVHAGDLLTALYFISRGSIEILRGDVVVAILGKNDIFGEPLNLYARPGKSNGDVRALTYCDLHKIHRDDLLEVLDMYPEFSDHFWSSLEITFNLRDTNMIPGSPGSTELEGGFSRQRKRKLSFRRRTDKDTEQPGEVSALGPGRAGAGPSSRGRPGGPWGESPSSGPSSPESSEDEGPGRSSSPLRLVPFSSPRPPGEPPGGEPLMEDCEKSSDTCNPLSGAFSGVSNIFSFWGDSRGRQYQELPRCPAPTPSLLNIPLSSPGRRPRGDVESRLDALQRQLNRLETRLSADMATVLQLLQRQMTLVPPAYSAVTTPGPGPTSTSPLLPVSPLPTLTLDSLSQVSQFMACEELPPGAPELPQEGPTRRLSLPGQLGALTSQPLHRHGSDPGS

[6] = molecular target: T3, Muscarinic acetylcholine receptor M1 (Homo sapiens, UniProt P11229); format: functional
T3 sequence (P11229 whole entry): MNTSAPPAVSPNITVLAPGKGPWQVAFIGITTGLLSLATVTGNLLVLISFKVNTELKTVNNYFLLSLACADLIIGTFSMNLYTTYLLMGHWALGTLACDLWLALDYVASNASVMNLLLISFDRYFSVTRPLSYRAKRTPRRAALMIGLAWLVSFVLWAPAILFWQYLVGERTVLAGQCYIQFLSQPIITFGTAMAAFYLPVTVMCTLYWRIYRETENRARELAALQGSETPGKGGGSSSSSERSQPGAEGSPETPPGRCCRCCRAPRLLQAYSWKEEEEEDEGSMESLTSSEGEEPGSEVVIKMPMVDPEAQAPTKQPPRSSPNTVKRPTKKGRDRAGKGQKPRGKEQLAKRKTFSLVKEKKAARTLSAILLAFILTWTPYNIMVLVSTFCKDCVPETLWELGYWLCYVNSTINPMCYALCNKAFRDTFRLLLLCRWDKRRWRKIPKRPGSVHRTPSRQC

[7] = molecular target: T4, Prostaglandin G/H synthase 1 (Rattus norvegicus, UniProt Q63921); format: functional
T4 sequence (Q63921 whole entry): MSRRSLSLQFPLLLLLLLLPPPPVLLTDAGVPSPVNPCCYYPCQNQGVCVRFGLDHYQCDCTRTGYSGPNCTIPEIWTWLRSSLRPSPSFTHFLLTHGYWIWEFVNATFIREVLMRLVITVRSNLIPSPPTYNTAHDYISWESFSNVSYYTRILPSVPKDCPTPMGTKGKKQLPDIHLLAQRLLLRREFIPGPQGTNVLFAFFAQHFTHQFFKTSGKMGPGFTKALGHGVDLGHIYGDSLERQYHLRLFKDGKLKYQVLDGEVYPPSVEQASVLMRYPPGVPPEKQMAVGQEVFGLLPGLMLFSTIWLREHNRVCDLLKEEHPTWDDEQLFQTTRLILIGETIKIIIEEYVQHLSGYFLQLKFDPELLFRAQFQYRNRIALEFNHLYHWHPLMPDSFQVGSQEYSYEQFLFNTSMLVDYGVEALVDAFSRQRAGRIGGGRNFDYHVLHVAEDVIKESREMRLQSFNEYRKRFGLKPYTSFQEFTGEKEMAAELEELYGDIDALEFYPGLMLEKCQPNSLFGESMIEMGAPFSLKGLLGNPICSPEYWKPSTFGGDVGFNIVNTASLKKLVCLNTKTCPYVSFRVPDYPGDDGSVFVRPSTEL

D(1A) dopamine receptor = D(1A) dopamine receptor (Homo sapiens, UniProt P21728); format: functional, cell-based
Sequence of D(1A) dopamine receptor (P21728 whole entry): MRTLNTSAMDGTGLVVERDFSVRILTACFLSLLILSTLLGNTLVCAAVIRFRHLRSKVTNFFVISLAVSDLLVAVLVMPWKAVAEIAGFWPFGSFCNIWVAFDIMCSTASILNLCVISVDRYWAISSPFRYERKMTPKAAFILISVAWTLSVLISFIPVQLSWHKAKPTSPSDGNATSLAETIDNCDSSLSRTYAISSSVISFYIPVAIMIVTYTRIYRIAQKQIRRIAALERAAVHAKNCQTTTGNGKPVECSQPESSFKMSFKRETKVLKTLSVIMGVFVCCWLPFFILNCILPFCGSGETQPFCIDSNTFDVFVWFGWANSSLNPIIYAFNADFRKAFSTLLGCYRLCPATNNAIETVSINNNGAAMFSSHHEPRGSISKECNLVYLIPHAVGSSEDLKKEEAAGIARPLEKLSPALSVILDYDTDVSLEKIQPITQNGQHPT

[8] = molecular target: T5, 5-hydroxytryptamine receptor 2C (Homo sapiens, UniProt P28335)
T5 sequence (P28335 whole entry): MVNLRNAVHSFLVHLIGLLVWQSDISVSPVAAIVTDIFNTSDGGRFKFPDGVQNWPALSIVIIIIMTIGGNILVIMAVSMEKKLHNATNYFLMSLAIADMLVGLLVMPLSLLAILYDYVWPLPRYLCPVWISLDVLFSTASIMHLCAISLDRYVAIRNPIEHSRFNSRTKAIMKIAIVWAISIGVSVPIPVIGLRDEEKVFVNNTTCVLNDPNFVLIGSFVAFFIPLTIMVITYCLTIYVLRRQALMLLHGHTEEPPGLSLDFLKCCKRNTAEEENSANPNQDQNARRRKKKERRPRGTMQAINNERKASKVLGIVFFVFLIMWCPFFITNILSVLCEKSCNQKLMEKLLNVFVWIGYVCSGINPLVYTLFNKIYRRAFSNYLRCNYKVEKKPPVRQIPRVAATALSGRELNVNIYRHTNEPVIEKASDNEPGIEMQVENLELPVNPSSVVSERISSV
Also: assay procedure not described here.

Sequence of Delta-type opioid receptor (P41143 whole entry): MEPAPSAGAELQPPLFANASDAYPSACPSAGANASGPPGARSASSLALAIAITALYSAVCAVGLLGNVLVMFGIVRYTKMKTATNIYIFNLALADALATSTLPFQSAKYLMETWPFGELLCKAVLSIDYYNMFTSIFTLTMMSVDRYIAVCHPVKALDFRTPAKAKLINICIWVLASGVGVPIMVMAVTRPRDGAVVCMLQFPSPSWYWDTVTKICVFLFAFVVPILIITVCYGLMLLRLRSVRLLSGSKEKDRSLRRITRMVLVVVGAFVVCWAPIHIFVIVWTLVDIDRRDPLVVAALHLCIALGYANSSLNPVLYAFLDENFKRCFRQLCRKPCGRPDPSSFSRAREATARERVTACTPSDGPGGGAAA

SMILES | AC50 [1] [µM] | AC50 [2] [µM] | AC50 [3] [µM] | AC50 (Mu-type opioid receptor) [µM] | AC50 [4] [µM] | AC50 [6] [µM] | AC50 [7] [µM] | AC50 (D(1A) dopamine receptor) [µM] | AC50 [8] [µM] | AC50 [5] [µM]
CC(NCCc1ccc(O)cc1)C(O)c1ccc(O)cc1 (stereo not given) [RITODRINE] | > 30 | > 30 | > 30 | 8.1 | > 30 | > 30 | > 30 | > 10 | > 30 | > 30
CN1CCN(c2c(F)cc3c(=O)c(C(=O)O)cn4c3c2SCC4)CC1 [RUFLOXACIN] | > 30 | > 30 | > 30 | > 30 | > 30 | > 30 | > 30 | > 30 | > 30 | > 30
COc1c(O[C@@H]2O[C@H](CO)[C@@H](O)[C@H](O)[C@H]2O)cc2c(c1OC)-c1ccc(SC)c(=O)cc1[C@@H](NC(C)=O)CC2 [THIOCOLCHICOSIDE] | > 30 | > 30 | > 30 | > 30 | > 30 | > 30 | > 30 | > 30 | > 30 | > 30
N#C[C@@H]1CCCN1C(=O)CNC12CC3CC(CC(O)(C3)C1)C2 [VILDAGLIPTIN] | > 30 | > 30 | > 30 | > 30 | > 30 | > 30 | > 30 | > 30 | > 30 | > 30

More lines, main results first:

AC50 [1] [µM] | AC50 [2] [µM] | AC50 [3] [µM] | AC50 (Mu-type opioid receptor) [µM] | AC50 [4] [µM] | AC50 [6] [µM] | AC50 [7] [µM] | AC50 (D(1A) dopamine receptor) [µM] | AC50 [8] [µM] | SMILES | AC50 [5] [µM]
> 30 | > 30 | > 10 | > 30 | > 30 | 7.9 | > 30 | > 30 | 11 | CC(=O)c1ccc2c(c1)N(CCCN1CCC(CCO)CC1)c1ccccc1S2 [PIPERACETAZINE] | 0.5
> 30 | > 30 | > 30 | > 30 | > 30 | > 30 | > 30 | > 30 | > 30 | Cc1ccc(=O)n(-c2ccccc2)c1 [PIRFENIDONE] | > 30
> 30 | > 30 | > 30 | 3.6 | > 30 | 1.7 | > 30 | > 30 | 9.9 | CCCOC(C(=O)OC1CCN(C)CC1)(c1ccccc1)c1ccccc1 [PROPIVERINE] | 3.2
30 | > 30 | > 30 | > 30 | > 30 | > 30 | 0.2 | > 30 | > 30 | Cc1ccc2c(-c3ccccc3)nc(=O)n(C(C)C)c2c1 [PROQUAZONE] | > 30
